{"source": "patent US9617278B2", "about": "“Antimicrobial compounds” (Dow Global Technologies LLC, priority 2012, dated 2017)", "key": {"[1]": {"test_system": "mixed pool of 6 bacterial species (aerobic organisms)", "test": "Biocidal efficacy at room temperature, aerobic bacteria", "assay_type": "cell-based", "protocol": "(§1) Glutaraldehyde and Compounds 1 and 2 are tested for biocidal activity against a pool of aerobic organisms at room temperature and against sulfate reducing bacteria (SRB) at room temperature. Tests are performed as follows:\n(§2) a. Stock preparation. Glutaraldehyde (50% in water) and Compounds 1 and 2 are each dissolved in DMSO to a concentration of 200 mM, which is equivalent to 20,000 ppm of free glutaraldehyde.\nb. Aerobic Bacteria—a mixed pool of 6 bacterial species at ˜5×10^6 CFU/mL in phosphate buffered saline is distributed into a 96-well plate. Each well receives an independent chemical treatment of glutaraldehyde or Compound 1 or 2 at concentrations ranging from 200 ppm to 12 ppm glutaraldehyde. A control treatment of DMSO alone is also included. Each condition is tested in triplicate. After set periods of incubation (1, 4, and 24 h), the number of surviving cells in each well are enumerated by dilution to extinction in a medium containing resazurin dye as an indicator. c. Sulfate Reducing Bacteria (SRB)—SRB testing is performed as for the aerobic bacteria with the following modifications: the species Desulfovibrio longus is tested in anaerobic PBS and the enumeration of surviving cells is performed in a medium containing soluble iron as an indicator. d. Results: Values indicate the minimum dose needed (in ppm) to achieve 3-log reduction in bacteria levels. […]"}, "[2]": {"test_system": "Thermus thermophilus (ATCC 27634)", "test": "Biocidal efficacy at elevated temperature", "assay_type": "cell-based", "conditions": "for log kill of treated bacterial populations relative to an untreated control: 50 ppm glutaraldehyde equivalent", "protocol": "Compound 1 (208 mg) is dissolved in DMSO (5 mL) to yield a 200 mM solution such that the glutaraldehyde-equivalent concentration of the stock solution is 20,000 ppm. The bacterial strain Thermus thermophilus (ATCC 27634) is maintained at 70° C. After 24-48 hours of growth, 10 mL of bacterial culture are harvested by spinning in a Beckman-Coulter benchtop centrifuge at 3000 rpm for 15 min. The cell pellet is resuspended in 100 mL of phosphate-buffered saline (PBS) to give approximately 5×10^5 CFU/mL and aliquoted into 10 mL portions in glass test tubes fitted with screw caps. Samples are equilibrated to 37, 55, or 70° C. for 30 min and then treated with glutaraldehyde or Compound 1 at 50 ppm glutaraldehyde equivalent. The treated samples are returned to their respective equilibration temperatures for 4 h and then enumerated for surviving bacteria. After 24 h, the process is repeated by adding fresh grown bacteria to the samples to re-challenge the biocide. The samples are again enumerated after 4 h.\nResults are reported in terms of log kill of treated bacterial populations relative to an untreated control at each temperature. For values listed as “>x,” actual kill may have been higher but could not be detected by this assay."}, "Desulfovibrio longus": {"test_system": "Desulfovibrio longus", "test": "Biocidal efficacy at room temperature, sulfate reducing bacteria (SRB)", "assay_type": "cell-based", "conditions": "for minimum dose needed to achieve 3-log reduction in bacteria levels: SRB, anaerobic PBS, doses 200 to 12 ppm glutaraldehyde equivalent, n/a = threshold not met at any tested dose; for activity against SRB (in words): compared with glutaraldehyde", "protocol": "as §1, §2\nb. Aerobic Bacteria—a mixed pool of 6 bacterial species at ˜5×10^6 CFU/mL in phosphate buffered saline is distributed into a 96-well plate. Each well receives an independent chemical treatment of glutaraldehyde or Compound 1 or 2 at concentrations ranging from 200 ppm to 12 ppm glutaraldehyde. A control treatment of DMSO alone is also included. Each condition is tested in triplicate. After set periods of incubation (1, 4, and 24 h), the number of surviving cells in each well are enumerated by dilution to extinction in a medium containing resazurin dye as an indicator. c. Sulfate Reducing Bacteria (SRB)—SRB testing is performed as for the aerobic bacteria with the following modifications: the species Desulfovibrio longus is tested in anaerobic PBS and the enumeration of surviving cells is performed in a medium containing soluble iron as an indicator. d. Results: Values indicate the minimum dose needed (in ppm) to achieve 3-log reduction in bacteria levels. “n/a” indicates the threshold was not met at any of the tested doses. “N.D” indicates data not available."}, "[3]": {"test": "Stability of the compound on work-up, GC of dried sample", "assay_type": "physicochemical", "conditions": "GC peak becomes smaller after drying of the crude material", "protocol": "A three neck 50 mL round bottom flask equipped with a stir bar, thermocouple, addition funnel capped with nitrogen inlet and condenser is charged with 2-amino-2-methylpropan-1-ol (95%, 7.8 g, 0.083 mols, 1.0 equivalents). The flask is cooled down to approximately 10° C. under ice/water bath. Once the temperature is reached, glutaraldehyde (50%, 16.7 g, 0.083 mols, 1.0 equivalents) is added drop wise over a period of 15-20 minutes. The reaction temperature is maintained by cooling the bath and by controlled addition of glutaraldehyde. After complete addition of glutaraldehyde, the transparent reaction mixture turns milky/opaque and a viscous sticky solid starts forming making stirring difficult. The reaction is stopped and the GC of the material is taken and a peak at 11.99 minutes is observed which corresponds to compound (4). The GC has some minor impurities in the high retention region. 20 mL of ethyl acetate is added to the reaction mixture and vigorously stirred under nitrogen. The entire content of the flask dissolve in ethyl acetate. The ethyl acetate layer is washed twice with 25 mL of water and the organic layer dried in magnesium sulfate.\nA three neck 100 mL round bottom flask equipped with a stir bar, thermocouple, addition funnel capped with nitrogen inlet and condenser is charged with 3-aminobutan-2-ol (100%, 8.9 g, 0.1mols, 1.0 equivalent). […]"}}}
{"molecule": "CCCCC1OC2CCC=CN2C1CC", "note": "(stereo not drawn) [Compound 1, 2-butyl-3-ethyl-3,7,8,8a-tetrahydro-2H-oxazolo[3,2-a]pyridine]", "values": [{"measurement": "biocidal activity against aerobic bacteria (in words)", "setting": "[1]", "value": "do not show significant biocidal activity"}, {"measurement": "log kill of treated bacterial populations relative to an untreated control", "setting": "[2]; 37° C., 4 hr", "value": ">3", "unit": "log"}, {"measurement": "log kill of treated bacterial populations relative to an untreated control", "setting": "[2]; 37° C., 24 hr re-challenge with fresh bacteria, enumerated after 4 h", "value": 2, "unit": "log"}, {"measurement": "log kill of treated bacterial populations relative to an untreated control", "setting": "[2]; 55° C., 4 hr", "value": ">3", "unit": "log"}, {"measurement": "log kill of treated bacterial populations relative to an untreated control", "setting": "[2]; 55° C., 24 hr re-challenge with fresh bacteria, enumerated after 4 h", "value": 1, "unit": "log"}, {"measurement": "activity compared with glutaraldehyde (in words)", "setting": "[2]; 70° C.", "value": "equivalent activity to glutaraldehyde"}, {"measurement": "log kill of treated bacterial populations relative to an untreated control", "setting": "[2]; 70° C., 4 hr", "value": ">4", "unit": "log"}, {"measurement": "log kill of treated bacterial populations relative to an untreated control", "setting": "[2]; 70° C., 24 hr re-challenge with fresh bacteria, enumerated after 4 h", "value": ">4", "unit": "log"}, {"measurement": "activity compared with glutaraldehyde (in words)", "setting": "[2]; lower temperatures (37, 55° C.)", "value": "less effective"}, {"measurement": "minimum dose needed to achieve 3-log reduction in bacteria levels", "setting": "Desulfovibrio longus; 4 hours", "value": 200, "unit": "ppm"}, {"measurement": "minimum dose needed to achieve 3-log reduction in bacteria levels", "setting": "Desulfovibrio longus; 24 hours", "value": 26, "unit": "ppm"}, {"measurement": "activity against SRB (in words)", "setting": "Desulfovibrio longus", "value": "some activity against SRB, but are not as effective as glutaraldehyde"}]}
{"molecule": "CCCCC(CC)C1OC2CCC=CN2C1C", "note": "(stereo not drawn) [Compound 2, 2-(heptan-3-yl)-3-methyl-3,7,8,8a-tetrahydro-2H-oxazolo[3,2-a]pyridine]", "values": [{"measurement": "biocidal activity against aerobic bacteria (in words)", "setting": "[1]", "value": "do not show significant biocidal activity"}, {"measurement": "minimum dose needed to achieve 3-log reduction in bacteria levels", "setting": "Desulfovibrio longus; 1 hour", "value": 200, "unit": "ppm"}, {"measurement": "minimum dose needed to achieve 3-log reduction in bacteria levels", "setting": "Desulfovibrio longus; 4 hours", "value": ">200", "unit": "ppm"}, {"measurement": "activity against SRB (in words)", "setting": "Desulfovibrio longus", "value": "some activity against SRB, but are not as effective as glutaraldehyde"}]}
{"molecule": "CC1(C)COC2CCC=CN21", "note": "(stereo not drawn) [Compound 4, 3,3-dimethyl-3,7,8,8a-tetrahydro-2H-oxazolo[3,2-a]pyridine]", "values": [{"measurement": "stability of the compound (in words)", "setting": "[3]", "value": "limited stability"}]}
{"molecule": "CC1OC2CCC=CN2C1C", "note": "(stereo not drawn) [Compound 5, 2,3-dimethyl-3,7,8,8a-tetrahydro-2H-oxazolo[3,2-a]pyridine]", "values": [{"measurement": "stability of the compound (in words)", "setting": "[3]", "value": "limited stability"}]}
